PubChem BioAssay AID1963425 (Molecular Pharmacology Branch, DTP, NCI, 2024)

Tested on: 323965-272-R-J2-PDC complex spheroid growth, % test/control
Assay: Anticancer human tumor 323965-272-R-J2-PDC patient-derived pancreatic carcinoma cell line growth inhibition [Asc]
Conditions: for IC50: curve of first compound; for viability, T/C: stronger effect = lower value
Outline: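 Tumor cells were grown as complex spheroids with human endothelial cells (HUVEC) and human mesenchymal stem cells as stroma. Agents were tested alone and in combination, in half-log steps down from the clinical Cmax, or from 10 microM where Cmax was unknown.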

[1] = second compound 0.00316 µM, first compound 0.0316 µM
[2] = second compound 0.00316 µM, first compound 0.1 µM
[3] = second compound 0.00316 µM, first compound 0.316 µM
[4] = second compound 0.00316 µM, first compound 1 µM
[5] = second compound 0.01 µM, first compound 0.0316 µM
[6] = second compound 0.01 µM, first compound 0.1 µM
[7] = second compound 0.01 µM, first compound 0.316 µM
[8] = second compound 0.01 µM, first compound 1 µM
[9] = second compound 0.0316 µM, first compound 0.0316 µM
[10] = second compound 0.0316 µM, first compound 0.1 µM
[11] = second compound 0.0316 µM, first compound 0.316 µM
[12] = second compound 0.0316 µM, first compound 1 µM
[13] = second compound 0.1 µM, first compound 0.0316 µM
[14] = second compound 0.1 µM, first compound 0.1 µM
[15] = second compound 0.1 µM, first compound 0.316 µM
[16] = second compound 0.1 µM, first compound 1 µM
[17] = second compound 0.316 µM, first compound 0.0316 µM
[18] = second compound 0.316 µM, first compound 0.1 µM
[19] = second compound 0.316 µM, first compound 0.316 µM
[20] = second compound 0.316 µM, first compound 1 µM
[21] = second compound 1 µM, first compound 0.0316 µM
[22] = second compound 1 µM, first compound 0.1 µM
[23] = second compound 1 µM, first compound 0.316 µM
[24] = second compound 1 µM, first compound 1 µM
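Note: compound exposure lasted 7 days starting three days after spheroid seeding.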
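Throughout, for viability, T/C: 100% = DMSO vehicle control wells with viability set relative to vehicle.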

COc1c(OCCCN2CCOCC2)ccc2c3n(c(=NC(=O)c4cnc(N)nc4)nc12)CCN3 + CNC(C)C(=O)NC1CN(S(=O)(=O)c2cccc(S(=O)(=O)N3CCC4CCC(C(=O)NC(c5ccccc5)c5ccccc5)N4C(=O)C(NC(=O)C(C)NC)C3)c2)CCC2CCC(C(=O)NC(c3ccccc3)c3ccccc3)N2C1=O
IC50 (second compound 0.00316 µM): 129 nM | IC50 (second compound 0.01 µM): 99.2 nM | IC50 (second compound 0.0316 µM): 92.6 nM | IC50 (second compound 0.1 µM): 78.4 nM | IC50 (second compound 0.316 µM): 102 nM | IC50 (second compound 1 µM): 70.5 nM | viability, T/C (second compound 0.00316 µM, first compound 0.00316 µM): 97.2% | viability, T/C (second compound 0.00316 µM, first compound 0.01 µM): 81.3% | viability, T/C [1]: 69.5% | viability, T/C [2]: 54.6% | viability, T/C [3]: 36.9% | viability, T/C [4]: 32.4% | viability, T/C (second compound 0.01 µM, first compound 0.00316 µM): 91.6% | viability, T/C (second compound 0.01 µM, first compound 0.01 µM): 88.9% | viability, T/C [5]: 60.1% | viability, T/C [6]: 52.8% | viability, T/C [7]: 36.8% | viability, T/C [8]: 26% | viability, T/C (second compound 0.0316 µM, first compound 0.00316 µM): 94.7% | viability, T/C (second compound 0.0316 µM, first compound 0.01 µM): 84.1% | viability, T/C [9]: 66.4% | viability, T/C [10]: 48.6% | viability, T/C [11]: 37.6% | viability, T/C [12]: 31.3% | viability, T/C (second compound 0.1 µM, first compound 0.00316 µM): 89.5% | viability, T/C (second compound 0.1 µM, first compound 0.01 µM): 80.1% | viability, T/C [13]: 62.9% | viability, T/C [14]: 49.3% | viability, T/C [15]: 29.9% | viability, T/C [16]: 29.4% | viability, T/C (second compound 0.316 µM, first compound 0.00316 µM): 84.9% | viability, T/C (second compound 0.316 µM, first compound 0.01 µM): 85.4% | viability, T/C [17]: 73.3% | viability, T/C [18]: 49.7% | viability, T/C [19]: 36.8% | viability, T/C [20]: 30.3% | viability, T/C (second compound 1 µM, first compound 0.00316 µM): 85.2% | viability, T/C (second compound 1 µM, first compound 0.01 µM): 76.3% | viability, T/C [21]: 60.5% | viability, T/C [22]: 43.4% | viability, T/C [23]: 35.8% | viability, T/C [24]: 24.3%

C#Cc1c(F)ccc2cc(O)cc(-c3ncc4c(N5CC6CCC(C5)N6)nc(OCC56CCCN5CC(F)C6)nc4c3F)c12 (stereo unspecified) + CNC(C)C(=O)NC1CN(S(=O)(=O)c2cccc(S(=O)(=O)N3CCC4CCC(C(=O)NC(c5ccccc5)c5ccccc5)N4C(=O)C(NC(=O)C(C)NC)C3)c2)CCC2CCC(C(=O)NC(c3ccccc3)c3ccccc3)N2C1=O
IC50 (second compound 0.00316 µM): > 10000 nM | IC50 (second compound 0.01 µM): > 10000 nM | IC50 (second compound 0.0316 µM): > 10000 nM | IC50 (second compound 0.1 µM): > 10000 nM | IC50 (second compound 0.316 µM): > 10000 nM | IC50 (second compound 1 µM): > 10000 nM | viability, T/C [1]: 109% | viability, T/C [2]: 92.7% | viability, T/C [3]: 94.1% | viability, T/C [4]: 94.9% | viability, T/C (second compound 0.00316 µM, first compound 3.16 µM): 70.2% | viability, T/C (second compound 0.00316 µM, first compound 10 µM): 61.8% | viability, T/C [5]: 117% | viability, T/C [6]: 102% | viability, T/C [7]: 96.4% | viability, T/C [8]: 87.4% | viability, T/C (second compound 0.01 µM, first compound 3.16 µM): 74.2% | viability, T/C (second compound 0.01 µM, first compound 10 µM): 63.2% | viability, T/C [9]: 127% | viability, T/C [10]: 102% | viability, T/C [11]: 106% | viability, T/C [12]: 89.7% | viability, T/C (second compound 0.0316 µM, first compound 3.16 µM): 70.4% | viability, T/C (second compound 0.0316 µM, first compound 10 µM): 58.3% | viability, T/C [13]: 101% | viability, T/C [14]: 96.6% | viability, T/C [15]: 95.4% | viability, T/C [16]: 91.2% | viability, T/C (second compound 0.1 µM, first compound 3.16 µM): 62.3% | viability, T/C (second compound 0.1 µM, first compound 10 µM): 70.2% | viability, T/C [17]: 101% | viability, T/C [18]: 95.1% | viability, T/C [19]: 96.5% | viability, T/C [20]: 82.4% | viability, T/C (second compound 0.316 µM, first compound 3.16 µM): 74% | viability, T/C (second compound 0.316 µM, first compound 10 µM): 65.4% | viability, T/C [21]: 90.9% | viability, T/C [22]: 105% | viability, T/C [23]: 92.9% | viability, T/C [24]: 91% | viability, T/C (second compound 1 µM, first compound 3.16 µM): 66.8% | viability, T/C (second compound 1 µM, first compound 10 µM): 53.2%

CNC(C)C(=O)NC1CN(S(=O)(=O)c2cccc(S(=O)(=O)N3CCC4CCC(C(=O)NC(c5ccccc5)c5ccccc5)N4C(=O)C(NC(=O)C(C)NC)C3)c2)CCC2CCC(C(=O)NC(c3ccccc3)c3ccccc3)N2C1=O (stereo unspecified) + CCN1C(C(=O)NC23CCC(C(=O)O)(CC2)CC3)C(c2cccc(Cl)c2F)C2(C(=O)Nc3cc(Cl)ccc32)C12CCCCC2
IC50 (second compound 0.00949 µM): > 1000 nM | IC50 (second compound 0.03 µM): > 1000 nM | IC50 (second compound 0.0949 µM): > 1000 nM | IC50 (second compound 0.3 µM): > 1000 nM | IC50 (second compound 0.949 µM): > 1000 nM | IC50 (second compound 3 µM): > 1000 nM | viability, T/C (second compound 0.00949 µM, first compound 0.00316 µM): 110% | viability, T/C (second compound 0.00949 µM, first compound 0.01 µM): 106% | viability, T/C (second compound 0.00949 µM, first compound 0.0316 µM): 96.8% | viability, T/C (second compound 0.00949 µM, first compound 0.1 µM): 103% | viability, T/C (second compound 0.00949 µM, first compound 0.316 µM): 109% | viability, T/C (second compound 0.00949 µM, first compound 1 µM): 105% | viability, T/C (second compound 0.03 µM, first compound 0.00316 µM): 102% | viability, T/C (second compound 0.03 µM, first compound 0.01 µM): 99% | viability, T/C (second compound 0.03 µM, first compound 0.0316 µM): 105% | viability, T/C (second compound 0.03 µM, first compound 0.1 µM): 105% | viability, T/C (second compound 0.03 µM, first compound 0.316 µM): 113% | viability, T/C (second compound 0.03 µM, first compound 1 µM): 106% | viability, T/C (second compound 0.0949 µM, first compound 0.00316 µM): 118% | viability, T/C (second compound 0.0949 µM, first compound 0.01 µM): 103% | viability, T/C (second compound 0.0949 µM, first compound 0.0316 µM): 103% | viability, T/C (second compound 0.0949 µM, first compound 0.1 µM): 95% | viability, T/C (second compound 0.0949 µM, first compound 0.316 µM): 106% | viability, T/C (second compound 0.0949 µM, first compound 1 µM): 99.5% | viability, T/C (second compound 0.3 µM, first compound 0.00316 µM): 123% | viability, T/C (second compound 0.3 µM, first compound 0.01 µM): 113% | viability, T/C (second compound 0.3 µM, first compound 0.0316 µM): 107% | viability, T/C (second compound 0.3 µM, first compound 0.1 µM): 92.8% | viability, T/C (second compound 0.3 µM, first compound 0.316 µM): 104% | viability, T/C (second compound 0.3 µM, first compound 1 µM): 102% | viability, T/C (second compound 0.949 µM, first compound 0.00316 µM): 112% | viability, T/C (second compound 0.949 µM, first compound 0.01 µM): 107% | viability, T/C (second compound 0.949 µM, first compound 0.0316 µM): 96.2% | viability, T/C (second compound 0.949 µM, first compound 0.1 µM): 104% | viability, T/C (second compound 0.949 µM, first compound 0.316 µM): 95.1% | viability, T/C (second compound 0.949 µM, first compound 1 µM): 88.5% | viability, T/C (second compound 3 µM, first compound 0.00316 µM): 98.9% | viability, T/C (second compound 3 µM, first compound 0.01 µM): 109% | viability, T/C (second compound 3 µM, first compound 0.0316 µM): 90.3% | viability, T/C (second compound 3 µM, first compound 0.1 µM): 101% | viability, T/C (second compound 3 µM, first compound 0.316 µM): 89.5% | viability, T/C (second compound 3 µM, first compound 1 µM): 95.2%
